For 46 compounds, photoluminescence quantum yield results are on record in the Deep4Chem optical property database.

“And” between values parts separate entries of the source, which are not always exact repeats. Equal entries are not always repeated.

The series is described as follows: photoluminescence quantum yield (fraction); solvent given as SMILES.
Setting [1] is: in c1cc(-c2cccc(-n3c4ccccc4c4ccccc43)c2)cc(-n2c3ccccc3c3ccccc32)c1.
The mark [2] stands for this setting: in c1cc(-n2c3ccccc3c3ccccc32)cc(-n2c3ccccc3c3ccccc32)c1.

In the case of `C=CCNc1ccc2c(ccc3oc4cc(=[N+](C)C)ccc-4nc32)c1`, the photoluminescence quantum yield amounted to 0.06 (in CC#N), 0.05 (in CCO), 0.4 (in ClCCl) and 0.009 (in O).
`N#Cc1ccc(/C=C/c2ccc(C=C(c3ccccc3)c3ccccc3)cc2)cc1` registered a photoluminescence quantum yield (in C1CCOC1) of 0.166.
Consider `CN(C)c1ccc(-c2nc(-c3ccc(-n4c5ccccc5c5ccccc54)cc3)cc(-c3ccc(-n4c5ccccc5c5ccccc54)cc3)n2)cc1`, for which the photoluminescence quantum yield reads like this: (in C1CCOC1) 0.035; (in CN(C)C=O) 0.011; (in Cc1ccccc1) 0.07; (in ClC(Cl)Cl) 0.07.
Under “in CC#N”, `Cc1ccc(-c2ccc(/C=C/c3ccc(Br)n3C)cn2)nc1` yielded a photoluminescence quantum yield of 0.13.
On to `CC1(C)c2cc(-n3c4ccccc4c4ccccc43)ccc2N(c2ccc(-c3cc(-c4ccccc4)nc(-c4ccccc4)n3)cc2)c2ccc(-n3c4ccccc4c4ccccc43)cc21`, for which the photoluminescence quantum yield (in O=P(c1ccccc1)(c1ccccc1)c1ccccc1Oc1ccccc1P(=O)(c1ccccc1)c1ccccc1) turned out to be 0.81.
Regarding `COC(=O)c1c(NC(C)(C)C)oc(-c2ccc(-c3ccccc3)cc2)c1C(=O)OC`, where the note is “in CC#N”, the photoluminescence quantum yield is 0.14.
With `CCN(CC)c1ccc(-n2cccc2)cc1`, the photoluminescence quantum yield was 0.13 (in CC#N) and 0.11 (in CCCCCC).
For the setting “in CS(C)=O”, `N#Cc1c(/C=C/c2ccc(N(c3ccccc3)c3ccccc3)cc2)cc(-c2cccs2)cc1N1CCCCC1` yielded a photoluminescence quantum yield of 0.53.
Turning to `Cc1ccc(C)n1-c1ccc(N(C)C)cc1`, the photoluminescence quantum yield reads like this: (in CC#N) 0.27; (in CCCCCC) 0.11.
On to `CC(C)(C)c1ccc2c(c1)c1cc(C(C)(C)C)ccc1n2-c1ccc(-c2ccc3c(c2)C(=O)c2ccc(-c4ccc(-n5c6ccc(C(C)(C)C)cc6c6cc(C(C)(C)C)ccc65)cc4)cc2C3=O)cc1`, for which the photoluminescence quantum yield was 0.6 (in Cc1ccccc1) and 0.65 (in c1ccc2c(c1)c1ccccc1n2-c1ccc(-c2ccc(-n3c4ccccc4c4ccccc43)cc2)cc1).
`Cc1ccc(-c2ccc(-c3ccc(-c4ccc(-c5ccc(C)cc5)cc4)c(/C(=C(/c4ccccc4)c4cc(-c5ccc(-c6ccc(C)cc6)cc5)ccc4-c4ccc(-c5ccc(C)cc5)cc4)c4ccccc4)c3)cc2)cc1`: the photoluminescence quantum yield (in C1CCOC1) amounted to 0.3.
In turn, `CCN(CC)c1ccc2cc(-c3ccc(-c4ccc(-c5cc6ccccc6oc5=O)cc4)cc3)c(=O)oc2c1` yielded a photoluminescence quantum yield (in ClCCl) of 0.59.
Consider `CCOC(=O)c1sc(SC)c2c(=O)[nH]nnc12`, for which the photoluminescence quantum yield stood at 0.0075 (in C1CCOC1); 0.018 (in CC#N); 0.023 (in CCO); 0.0037 (in CN(C)C=O); 0.029 (in CO); 0.0054 (in CS(C)=O).
With `C/C(=N\Nc1ccc(C#N)cc1)c1cccc(/C(C)=N/Nc2ccc(C#N)cc2)c1`, the photoluminescence quantum yield (in CO) came out at 0.14.
Same read-out and setting: to `COc1ccc(/C=C(\c2ccccc2)c2nc3ccccc3s2)cc1` belongs 0.001.
On to `S=P1(c2ccccc2)C(c2ccccc2)=Cc2cc3ccccc3cc21` (stereo not given), for which the photoluminescence quantum yield (in ClCCl) amounted to 0.001.
For the setting “in ClC(Cl)Cl”, `CC(C)(C)c1ccc(Oc2cc3c4c(cc(Oc5ccc(C(C)(C)C)cc5)c5c6c(Oc7ccc(C(C)(C)C)cc7)cc7c8c(cc(Oc9ccc(C(C)(C)C)cc9)c(c2c45)c86)C(=O)N(c2ccccc2)C7=O)C(=O)N(c2ccccc2)C3=O)cc1` registered a photoluminescence quantum yield of 0.86.
For `CCOC(=O)C1=CN(c2ccccc2)C=C(C(=O)OCC)C1c1ccccc1`, the photoluminescence quantum yield runs as follows: (in C1CCOC1) 0.51; (in CO) 0.44.
As to `COc1ccc(-c2csc(/C(C#N)=C/c3c(Cl)cccc3Cl)n2)cc1`, under “in CC#N”, the photoluminescence quantum yield came to 0.038.
On to `CCn1c2cc(-c3ccc(-c4cccs4)s3)ccc2c2ccc(-c3ccc(-c4cccs4)s3)cc21`, for which the photoluminescence quantum yield (in ClCCl) worked out at 0.482.
As to `COC(=O)c1ccc(-c2ccc3c(c2)C(=O)c2cc(-c4ccc(C(=O)OC)cc4)ccc2-3)cc1`, under “in C1CCOC1”, the photoluminescence quantum yield amounted to 0.02.
For the setting “in Cc1ccccc1”, `COC(=O)/C(C#N)=c1\s/c(=c2/s/c(=C(/C#N)C(=O)OC)c3cc(-c4ccc(OC)cc4)sc23)c2sc(-c3ccc(OC)cc3)cc12` yielded a photoluminescence quantum yield of 0.424.
On to `O=c1c2ccccc2n2c3ccc(-c4ccccc4)cc3c(=O)c3cccc1c32`, for which the photoluminescence quantum yield came to 0.73 under setting [1] and 0.73 under setting [2].
In turn, `c1cc2ccc3ccc4cc3c2cc1c1ccc2ccc3ccc(cc3c2c1)c1ccc2c(c1)c1cc4ccc1[C@]13OCCO[C@]21OCCO3` registered a photoluminescence quantum yield (in Cc1ccccc1) of 0.78.
As for `CCCN1c2ccccc2Sc2cc(/C=C\c3cc(=O)oc4c(O)c(O)ccc34)ccc21`, the photoluminescence quantum yield (in ClC(Cl)Cl) was found to be 0.37.
`Fc1c(F)c(-n2c3ccccc3c3ccccc32)c(F)c(F)c1-c1nnc(-c2ccccc2)o1` gave a photoluminescence quantum yield (in Cc1ccccc1) of 0.27.
On to `CCOc1ccc(/C=C/C=C/C=C/c2ccc([N+](=O)[O-])cc2)cc1`, for which the photoluminescence quantum yield was 0.22 (in CC1CCCCC1), 0.017 (in CC#N), 0.5 (in Cc1ccccc1) and 0.068 (in ClCCl).
Compound `N#Cc1cnc(-c2c3ccccc3c(-c3ncc(C#N)cn3)c3ccccc23)nc1` yielded a photoluminescence quantum yield (in CCO) of 0.16 and a photoluminescence quantum yield (in ClCCl) of 0.54.
`Cc1ccc(C2=C3C=CC(Sc4ccccc4)=[N+]3[B-](F)(F)n3c(Sc4ccccc4)ccc32)cc1`: under “in C1CCOC1”, the photoluminescence quantum yield is 0.82.
As for `Cc1cc(O)c(C(=O)/C=C/c2ccc(N(C)C)cc2)c(=O)o1`, the photoluminescence quantum yield is 0.018 (in CC#N) and 0.538 (in ClCCl).
`COC(=O)C1=C(C(=O)OC)C2(c3ccccc3-c3ccccc32)[C@@H](c2ccccc2)C=C2c3cc(OC)c(OC)cc3CCN21` registered a photoluminescence quantum yield (in ClCCl) of 0.00354.
Same read-out and setting: to `O=c1cc(-c2ccccc2)oc(-c2ccc(-c3nc4ccccn4c3NC3CCCCC3)cc2)c1` belongs 0.028.
Regarding `CC(C)(C)NC(=O)c1cccc2ccc3c4ccc(F)cc4c4cc(F)ccc4c3c12`, under “in ClCCl”, the photoluminescence quantum yield stood at 0.05.
Take `CC(C)(C)N1C(=O)c2c(cc3ccc4cccc5ccc2c3c45)C1O` (stereo not given): the photoluminescence quantum yield (in ClC(Cl)Cl) was 0.14 and 0.143.
Take `Nc1ccc2c(c1)C(=O)O/C2=C\c1ccc(Cl)cc1`: the photoluminescence quantum yield was found to be 0.08 (in CC#N); 0.1 (in CC(C)=O); 0.2 (in CC(C)CO); 0.18 (in CC(C)O); 0.18 (in CCCO); 0.17 (in CCO). Also, the photoluminescence quantum yield reads like this: (in CCOC(C)=O) 0.11; (in CCOCC) 0.12; (in CO) 0.14.
`C[Si](C)(C)c1ccc(C#N)c2ccccc12` gave a photoluminescence quantum yield (in C1CCCCC1) of 0.66.
In turn, `N=c1oc2cccc3c4c(-c5ccccc5)oc5cccc(c(c1-c1ccccc1)c23)c54` showed a photoluminescence quantum yield (in ClC(Cl)Cl) of 0.04.
Under “in ClC(Cl)Cl”, `Cc1ccc(C2=C3C=CC4=[N+]3[P-](=O)(=O)n3c2ccc3-c2ccc([nH]2)/C(c2ccc(C)cc2)=c2/cc/c(o2)=C(\c2ccc(C)cc2)c2ccc4[nH]2)cc1` returned a photoluminescence quantum yield of 0.18.
Compound `CCC/N=C/c1cc2ccc(N(C)C)cc2cc1OC` returned a photoluminescence quantum yield (in CS(C)=O) of 0.61.
Turning to `c1ccc(N(c2ccccc2)c2ccc(-c3ccc4c(c3)C3(c5ccccc5Oc5ccccc53)c3cc(-c5ccc(N(c6ccccc6)c6ccccc6)cc5)ccc3-4)cc2)cc1`, the photoluminescence quantum yield came out at 0.91 (in ClCCl) and 0.9 under setting [2].
`c1csc(-c2cnc(-c3cccs3)c3nonc23)c1`: the photoluminescence quantum yield was 0.54 (in C1CCCCC1); 0.39 (in CC(C)=O); 0.54 (in CCCCCC); 0.22 (in CCCO); 0.19 (in CCO); 0.52 (in CCOCC). The photoluminescence quantum yield came to 0.15 (in CO); 0.35 (in Cc1ccccc1); 0.43 (in ClC(Cl)(Cl)Cl); 0.35 (in ClC(Cl)Cl); 0.2 (in O=[N+]([O-])c1ccccc1); 0.03 (in OCC(O)CO). Further, the photoluminescence quantum yield reads like this: (in OCc1ccccc1) 0.12; (in c1ccc2ncccc2c1) 0.25; (in c1ccccc1) 0.4; (in c1ccncc1) 0.23.
With `CCn1c2ccccc2c2cc(C#Cc3cc(C#Cc4ccc5c(c4)c4ccccc4n5CC)nc(N4CCCCC4)n3)ccc21`, the photoluminescence quantum yield was 0.21 (in C1CCOC1); 0.17 (in CCOC(C)=O); 0.15 (in CN(C)C=O); 0.21 (in Cc1ccccc1); 0.2 (in ClCCl).
In the case of `O=C(c1ccncc1)c1ccc(-n2c3ccccc3c3ccccc32)cc1`, the photoluminescence quantum yield turned out to be 0.012 (in Cc1ccccc1) and 0.38 under setting [1].
As to `CC(=O)O[B-]1(OC(C)=O)OC(/C=C/c2cccc3ccccc23)=CC(/C=C/c2cccc3ccccc23)=[O+]1`, the photoluminescence quantum yield by setting is: (in C1CCOC1) 0.75; (in CC#N) 0.43; (in CC(C)=O) 0.58; (in CS(C)=O) 0.38; (in Cc1ccccc1) 0.84; (in ClC(Cl)Cl) 0.73. For the same compound, the photoluminescence quantum yield (in ClCCl) amounted to 0.64.
In the case of `CC1=N/C(=C\c2cc(N(C)C)ccc2C#N)C(=O)N1C`, the photoluminescence quantum yield reads like this: (in C1CCOC1) 0.19; (in CC#N) 0.07; (in CCCCCC) 0.6.
As for `CC(C)[Si](C#Cc1ccc(C#C[Si](C(C)C)(C(C)C)C(C)C)c2nc3cc4c(cc3nc12)[C@H]1c2ccccc2[C@@H]4c2ccccc21)(C(C)C)C(C)C`, the photoluminescence quantum yield runs as follows: (in CCCCCC) 0.02; (in ClCCl) 0.02.
